Measurements as given in PMC12644462, “A novel radiosensitizer α-sulfoquinovosyl-acylpropanediol (SQAP) inhibits DNA repair pathways and sensitize cells to cancer chemotherapeutic agents” (Scientific Reports, 2025).
Counter-ions that a name gives are not always drawn. Like-named read-outs stand apart in the source and are kept apart here.

Key:
[1] = system: Chinese hamster V79 cells; test: Colony formation assay, radio- and chemosensitization; assay type: cell-based
Protocol: For hypoxia irradiation, cell cultures were placed in Aneropak Kenki system (Mitsubishi Gas Chemical, Tokyo, Japan) with oxygen meter to confirm pO2 below 0.1%. Cells were kept in hypoxia for 3 h before irradiation.

CML-6M and STSA-1 cells = test: Colony formation assay, chemosensitization by SQAP (qualitative); assay type: cell-based, canine; settings: for sensitization of chemotherapeutic agent by SQAP: combined with 30 µM SQAP
Protocol: Sensitivity to radiation or chemical reagents was assessed through colony formation assays. After trypsinized single cells were plated to form 20–200 colonies per dish and then treated with SQAP for 3 h in normoxia or hypoxia, the cells were irradiated. For drug sensitivity study, trypsinized cells were plated and then treated with various dosage of testing agents. After seven days of incubation, colonies were fixed, stained and scored. Regression curves were drawn from survival fraction, and D10 values (doses to achieve 10% cell survival) were calculated by Prism 8 (GraphPad software, San Diego, CA, USA) from at least three independent experiments. Oxygen enhancement ratio (OER) and sensitization enhancement ratio (SER) values were calculated from D10 values. OER values were calculated from the D10 value in hypoxia divided by the D10 value in normoxic condition. SER values were calculated from the D10 value without SQAP divided by the D10 value with SQAP.

CML-6M cells = test: Colony formation assay, drug sensitivity with SQAP; assay type: cell-based, canine
Protocol: (§1) Sensitivity to radiation or chemical reagents was assessed through colony formation assays. After trypsinized single cells were plated to form 20–200 colonies per dish and then treated with SQAP for 3 h in normoxia or hypoxia, the cells were irradiated. For drug sensitivity study, trypsinized cells were plated and then treated with various dosage of testing agents. After seven days of incubation, colonies were fixed, stained and scored[24]. Regression curves were drawn from survival fraction, and D10 values (doses to achieve 10% cell survival) were calculated by Prism 8 (GraphPad software, San Diego, CA, USA) from at least three independent experiments. Oxygen enhancement ratio (OER) and sensitization enhancement ratio (SER) values were calculated from D10 values. OER values were calculated from the D10 value in hypoxia divided by the D10 value in normoxic condition. SER values were calculated from the D10 value without SQAP divided by the D10 value with SQAP.

STSA-1 cells = test: Colony formation assay, drug sensitivity with SQAP; assay type: cell-based, canine
Protocol: as §1

## CC[C@@]1(O)C(=O)OCc2c1cc1n(c2=O)Cc2cc3ccccc3nc2-1 [camptothecin, Camptothecin]
[1]; V79, 10 and 20 µM SQAP
  effect of SQAP on cytotoxicity of the agent: increased the cytotoxicity
[1]; V79, P < 0.05
  change of D10 value of the agent with SQAP treatment: significant reduction

## O=C1c2c(O)ccc(O)c2C(=O)c2c(NCCNCCO)ccc(NCCNCCO)c21 [Mitoxantrone, Mitoxantrone dihydrochloride]
CML-6M and STSA-1 cells
  sensitization of chemotherapeutic agent by SQAP: significant sensitization

## O=C(O)CCCc1ccc(N(CCCl)CCCl)cc1 [chlorambucil, Chlorambucil]
CML-6M and STSA-1 cells
  sensitization of chemotherapeutic agent by SQAP: no sensitization

## COS(C)(=O)=O [MMS, methyl methanesulfonate]
[1]
  effect of SQAP on cytotoxicity of the agent: increased the cytotoxicity

## COc1cccc2c1C(=O)c1c(O)c3c(c(O)c1C2=O)C[C@@](O)(C(=O)CO)C[C@@H]3O[C@H]1C[C@H](N)[C@H](O)[C@H](C)O1 [doxorubicin, Doxorubicin hydrochloride]
CML-6M cells; with 30 µM SQAP
  D10: 8.94 nM
CML-6M cells; without SQAP
  D10: 18.0 nM
STSA-1 cells; STSA-1, with 30 µM SQAP
  D10: 4.66 nM
STSA-1 cells; STSA-1, without SQAP
  D10: 8.11 nM
CML-6M and STSA-1 cells
  sensitization of chemotherapeutic agent by SQAP: most dramatic sensitization

## N.N.O=C([O-])C1(C(=O)[O-])CCC1.[Pt+2] [carboplatin]
CML-6M and STSA-1 cells
  sensitization of chemotherapeutic agent by SQAP: significant sensitization

## C[C@]12C=CC(=O)C=C1CC[C@@H]1[C@@H]2[C@@H](O)C[C@@]2(C)[C@H]1CC[C@]2(O)C(=O)CO [prednisolone]
CML-6M and STSA-1 cells; colony formation
  cytotoxicity (D10 not available): low cytotoxicity
CML-6M and STSA-1 cells
  sensitization of chemotherapeutic agent by SQAP: no sensitization

## N.N.[Cl][Pt][Cl] [cisplatin]
[1]; V79, P < 0.05
  change of D10 value of the agent with SQAP treatment: significant reduction

## CC(=O)O[C@H]1C(=O)[C@@]2(C)[C@H]([C@H](OC(=O)c3ccccc3)[C@]3(O)C[C@H](OC(=O)[C@H](O)[C@@H](NC(=O)c4ccccc4)c4ccccc4)C(C)=C1C3(C)C)[C@]1(OC(C)=O)CO[C@@H]1C[C@@H]2O [Taxol]
[1]
  effect of SQAP on cytotoxicity of the agent: increased the cytotoxicity

## O=NN(CCCl)C(=O)NC1CCCCC1 [lomustine]
CML-6M and STSA-1 cells
  sensitization of chemotherapeutic agent by SQAP: no sensitization

## COc1cc([C@@H]2c3cc4c(cc3[C@@H](O[C@@H]3O[C@@H]5CO[C@@H](C)O[C@H]5[C@H](O)[C@H]3O)[C@H]3COC(=O)[C@H]23)OCO4)cc(OC)c1O [etoposide]
[1]
  effect of SQAP on cytotoxicity of the agent: increased the cytotoxicity

## CO[C@@]12[C@H](COC(N)=O)C3=C(C(=O)C(C)=C(N)C3=O)N1C[C@@H]1N[C@@H]12 [MMC, Mitomycin C]
[1]; V79, 10 and 20 µM SQAP
  effect of SQAP on cytotoxicity of the agent: increased the cytotoxicity

## bleomycin
[1]
  change of D10 value of the agent with SQAP treatment: significant reduction
  sensitization to bleomycin by SQAP: sensitized and not
